System: UT7/EPO Cell line
Assay: Cell Proliferation Assay (UT7/EPO, ViaLight Plus)
Format: cell-based, human
Conditions: proliferative effect; compounds at 10 uM; UT7/EPO cells starved of EPO overnight; 72 hours at 37° C.; ViaLight Plus kit
Method: The primary testing for the examplfied compounds was performed in UT7/EPO Cell line. UT7/EPO is human leukemia cell line, obtained from Dr. Norio Komatsu (Blood, Vol 82 (2), pp 456-464, 1993). These cells express endogenous EPO receptor and are dependant upon EPO for growth and proliferation. Briefly, the cells were starved of EPO overnight and plated in 96 or 384 well plates. The compounds were added to the cells at 10 uM concentration. The plates were then incubated at 37° C. for 72 hours. The proliferative effect of the compounds was measured by a commercially available kit from Lonza (ViaLight Plus).

O=C(Nc1ccc2c(cnn2-c2ccc(NC(=O)c3cccs3)cc2)c1)c1ccc(N2CCCC(CO)C2)cc1 (racemic) [Compound 520, (±)-N-(4-(5-(4-(3-Hydroxymethyl)piperidin-1-yl)benzamido)-1H-indazol-1-yl)phenyl)thiophene-2-carboxamide]
Activity (%): 13%

O=C(Nc1ccc(C(=O)c2ccc(NC(=O)c3ccc[nH]3)cc2)cc1)c1ccc(N2CCCC(CO)C2)cc1 (racemic) [Compound 700, (±)-N-(4-(4-(4-(3-(Hydroxymethyl)piperidin-1-yl)benzamido)benzoyl)phenyl)-1H-pyrrole-2-carboxamide]
Activity (%): 14%

CN(C)c1ccc(C(=O)N/N=C/c2cccc(/C=N/NC(=O)c3ccc(N(C)C)cc3)c2)cc1 [Compound 103, (N′,N′″E,N′,N′″E)-N′,N′″-(1,3-phenylenebis(methanylylidene))bis(4-(dimethylamino)benzohydrazide)]
Activity (%): 16%

COc1ccc(/C=N/NC(=O)c2ccc(N(C)C)cc2)cc1/C=N/NC(=O)c1ccc(N(C)C)cc1 [Compound 106, (N′,N′″E,N′,N′″E)-N′,N′″-((4-methoxy-1,3-phenylene)bis(methanylylidene))bis(4-(dimethylamino)benzohydrazide)]
Activity (%): 14%

CN(C)c1ccc(C(=O)N/N=C/c2cc(/C=N/NC(=O)c3ccc(N(C)C)cc3)cc(OCc3ccccc3)c2)cc1 [Compound 107, (N′,N′″E,N′,N′″E)-N′,N′″-((5-(benzyloxy)-1,3-phenylene)bis(methanylylidene))bis(4-(dimethylamino)benzohydrazide)]
Activity (%): 17%

C=CCOc1cc(/C=N/NC(=O)c2ccc(N(C)C)cc2)cc(/C=N/NC(=O)c2ccc(N(C)C)cc2)c1 [Compound 113, (N′,N′″E,N′,N′″E)-N′,N′″-((5-(allyloxy)-1,3-phenylene)bis(methanylylidene))bis(4-(dimethylamino)benzohydrazide)]
Activity (%): 17%

O=C(N/N=C/c1cccc(/C=N/NC(=O)c2ccc(N(CC(F)(F)F)CC(F)(F)F)cc2)c1)c1ccc(N(CC(F)(F)F)CC(F)(F)F)cc1 [Compound 115, (N′,N′″E,N′,N′″E)-N′,N′″-(1,3-phenylenebis(methanylylidene))bis(4-(bis(2,2,2-trifluoroethyl)amino)benzohydrazide)]
Activity (%): 22%

Cn1ccc2cc(C(=O)N/N=C/c3cccc(/C=N/NC(=O)c4ccc5c(ccn5C)c4)c3)ccc21 [Compound 125, (N′,N′″E,N′,N′″E)-N′,N′″-(1,3-phenylenebis(methanylylidene))bis(1-methyl-1H-indole-5-carbohydrazide)]
Activity (%): 15%

CN(C)c1ccc(C(=O)N/N=C/c2cc(/C=N/NC(=O)c3ccc(N(C)C)cc3)cc(COCc3ccccc3)c2)cc1 [Compound 128, (N′,N′″E,N′,N′″E)-N′,N′″-((5-((benzyloxy)methyl)-1,3-phenylene)bis(methanylylidene))bis(4-(dimethylamino)benzohydrazide)]
Activity (%): 20%

CN(C)c1ccc(C(=O)N/N=C/c2cc(/C=N/NC(=O)c3ccc(N(C)C)cc3)cc(NCCO)c2)cc1 [Compound 135, (N′,N′″E,N′,N′″E)-N′,N′″-((5-((2-hydroxyethyl)amino)-1,3-phenylene)bis(methanylylidene))bis(4-(dimethylamino)benzohydrazide)]
Activity (%): 16%

COc1cccc(/C=N/NC(=O)c2ccc(C(=O)NCCC(=O)NCCO)cc2)c1 [Compound 141, (E)-N-(3-((2-hydroxyethyl)amino)-3-oxopropyl)-4-(2-(3-methoxybenzylidene)hydrazinecarbonyl)benzamide]
Activity (%): 19%

COc1cc(/C=N/NC(=O)c2ccc(C(=O)NCCC(=O)NCCO)cc2)ccc1O [Compound 146, (E)-4-(2-(4-hydroxy-3-methoxybenzylidene)hydrazinecarbonyl)-N-(3-((2-hydroxyethyl)amino)-3-oxopropyl)benzamide]
Activity (%): 19%

CN(C)c1cccc(/C=N/NC(=O)c2ccc(C(=O)NCCC(=O)NCCO)cc2)c1 [Compound 149, (E)-4-(2-(3-(dimethylamino)benzylidene)hydrazinecarbonyl)-N-(3-((2-hydroxyethyl)amino)-3-oxopropyl)benzamide]
Activity (%): 22%

CN(C)c1cccc(/C=N/NC(=O)c2ccc(NCCCC(=O)NCCO)cc2)c1 [Compound 151, (E)-4-((4-(2-(3-(dimethylamino)benzylidene)hydrazinecarbonyl)phenyl)amino)-N-(2-hydroxyethyl)butanamide]
Activity (%): 20%

COc1cccc(/C=N/NC(=O)c2ccc3c(ccn3CCCC(=O)Nc3cccc(N(C)C)c3)c2)c1 [Compound 156, (E)-N-(3-(dimethylamino)phenyl)-4-(5-(2-(3-methoxybenzylidene)hydrazinecarbonyl)-1H-indol-1-yl)butanamide]
Activity (%): 21%

COCCNC(=O)CCCn1ccc2cc(C(=O)N/N=C/c3cccc(-n4cccn4)c3)ccc21 [Compound 160, (E)-4-(5-(2-(3-(1H-pyrazol-1-yl)benzylidene)hydrazinecarbonyl)-1H-indol-1-yl)-N-(2-methoxyethyl)butanamide]
Activity (%): 22%

COc1cccc(/C=N/NC(=O)c2ccc(C(=O)NCCC(=O)NCCCCO)cc2)c1 [Compound 165, (E)-N-(3-((4-hydroxybutyl)amino)-3-oxopropyl)-4-(2-(3-methoxybenzylidene)hydrazinecarbonyl)benzamide]
Activity (%): 19%

O=C(Nc1ccc2[nH]c(-c3ccccc3)nc2c1)c1ccc(-c2ccccc2)cc1 [Compound 172, N-(2-Phenyl-1H-benzo[d]imidazol-5-yl)-[1,1′-biphenyl]-4-carboxamide]
Activity (%): 12%

COc1ccc(C(=O)Nc2ccc3[nH]c(-c4ccc(N5CCCC5)cc4)nc3c2)cc1 [Compound 177, 4-Methoxy-N-(2-(4-(pyrrolidin-1-yl)phenyl)-1H-benzo[d]imidazol-5-yl)benzamide]
Activity (%): 15%

CN(C)c1ccc(C(=O)Nc2ccc3[nH]c(-c4ccc5c(c4)OCCN5C)nc3c2)cc1 [Compound 181, 4-(Dimethylamino)-N-(2-(4-methyl-3,4-dihydro-2H-benzo[b][1,4]oxazin-7-yl)-1H-benzo[d]imidazol-5-yl)benzamide]
Activity (%): 20%

CN(C)c1ccc(C(=O)Nc2ccc3[nH]c(-c4ccc5nonc5c4)nc3c2)cc1 [Compound 186, N-(2-(benzo[c][1,2,5]oxadiazol-5-yl)-1H-benzo[d]imidazol-5-yl)-4-(dimethylamino)benzamide]
Activity (%): 15%

CN(C)c1ccc(NC(=O)c2ccc(-c3nc4cc(NC(=O)c5ccccc5)ccc4[nH]3)cc2)cc1 [Compound 191, 4-(5-benzamido-1H-benzo[d]imidazol-2-yl)-N-(4-(dimethylamino)phenyl)benzamide]
Activity (%): 18%

CN(C)c1ccc(NC(=O)c2ccc(-c3nc4cc(C(=O)Nc5ccc(N(C)C)cc5)ccc4[nH]3)cc2)cc1 [Compound 197, N-(4-(dimethylamino)phenyl)-2-(4-((4-(dimethylamino)phenyl)carbamoyl)phenyl)-1H-benzo[d]imidazole-5-carboxamide]
Activity (%): 20%
